Holding throughout (type): cell-based
Experiment [1] addresses T1, AQP9 (Homo sapiens, UniProt O43315).
T1 sequence (O43315 1-295): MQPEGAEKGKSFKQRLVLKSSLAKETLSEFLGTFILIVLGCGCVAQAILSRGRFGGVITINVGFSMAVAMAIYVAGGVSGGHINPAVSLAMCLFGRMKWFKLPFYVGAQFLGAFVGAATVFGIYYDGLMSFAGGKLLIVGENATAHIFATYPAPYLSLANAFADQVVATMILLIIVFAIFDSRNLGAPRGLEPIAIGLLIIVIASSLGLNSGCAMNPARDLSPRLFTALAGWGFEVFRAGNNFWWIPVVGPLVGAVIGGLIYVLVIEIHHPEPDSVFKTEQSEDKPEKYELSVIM
Briefly: stopped-flow light scattering water and glycerol permeability of AQP9-expressing yeast at […].

In experiment [2] the target is T2, AQP9 (Homo sapiens, UniProt O43315, C213A).
T2 sequence (O43315 1-295 C213A): T1 sequence (O43315 1-295) with C213A
Briefly: stopped-flow light scattering water and glycerol permeability of AQP9 Cys213Ala-expressing yeast at […].

Experiment [3] has as its target T3, AQP1 (Rattus norvegicus, UniProt P29975).
T3 sequence (P29975 1-269): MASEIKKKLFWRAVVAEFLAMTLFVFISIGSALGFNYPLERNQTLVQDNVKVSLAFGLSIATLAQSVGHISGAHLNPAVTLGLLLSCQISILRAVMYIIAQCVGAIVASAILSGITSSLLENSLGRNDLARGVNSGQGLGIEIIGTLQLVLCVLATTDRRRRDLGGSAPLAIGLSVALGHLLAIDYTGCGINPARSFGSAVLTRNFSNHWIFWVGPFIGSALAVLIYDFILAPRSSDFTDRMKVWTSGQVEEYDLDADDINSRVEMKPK
Briefly: stopped-flow light scattering water permeability of AQP1-expressing yeast; Cys189Ala variant resistant; reversed by ACC/DTT.

In experiment [4] the target is T3, AQP1. The experiment in a line: stopped-flow light scattering water permeability of AQP1-expressing yeast at […] (marginal effect); Cys189Ala variant resistant.
Experiment [5] addresses T3, AQP1. The experiment in a line: stopped-flow light scattering water permeability of AQP1-expressing yeast at […]; Cys189Ala variant resistant.
Experiment [6] addresses T1, AQP9. The experiment in a line: stopped-flow light scattering water and glycerol permeability of AQP9-expressing yeast at […]. This is another data set of the same source.
The target in experiment [7] is T2, AQP9. The experiment in a line: stopped-flow light scattering water and glycerol permeability of AQP9 Cys213Ala-expressing yeast at […]. The source holds these as a separate data set.

Numbering of substitutions follows the chain as printed. Where two headings read alike, the source gives them in different places.

With `CS(=O)(=O)SCc1ccccc1` [BMTS], the “stopped-flow light scattering water and glycerol permeability of AQP9-expressing” value in experiment [1] was “AQP9 water and glycerol permeability were strongly inhibited by BMTS and pCMBS”. The “stopped-flow light scattering water and glycerol permeability of AQP9 Cys213Ala-” value in experiment [2] was “The water permeability of AQP9 Cys213Ala was still inhibited to the same degree as that of the wildtype protein”. In experiment [3], this compound had an IC50 of 111 ± 3 µM. Regarding `CSS(C)(=O)=O` [MMTS], the “stopped-flow light scattering water permeability of AQP1-expressing yeast at 1 m” value in experiment [4] is reported as “the transfer of a small S-methyl from MMTS had a marginal effect on the water permeability”. Consider `CCCSS(C)(=O)=O` [PMTS], for which the “stopped-flow light scattering water permeability of AQP1-expressing yeast at 1 m” value in experiment [5] was “modification with S-n-propyl from PMTS conferred intermediate inhibition”.

Regarding `O=S(=O)([O-])c1cc[c]([Hg][Cl])cc1` [pCMBS], in experiment [6], the “stopped-flow light scattering water and glycerol permeability of AQP9-expressing” value is “AQP9 water and glycerol permeability were strongly inhibited by BMTS and pCMBS”. Moreover, in experiment [7], the “stopped-flow light scattering water and glycerol permeability of AQP9 Cys213Ala-” value was “treatment of AQP9 Cys213Ala with BMTS or pCMBS failed to generate full resistance to the Cys-modifying agents”.

In general, IC50 refers to the concentration that gives 50% inhibition. A high value points to a need for much substance.

Source of the values: article PMC10340331, “Methylthiosulfonate-Based Cysteine Modifiers as Alternative Inhibitors of Mercurial-Sensitive Aquaporins” (Cells, 2023).
